Data from ChEMBL document CHEMBL1124477, “Regional differences in the binding of selective muscarinic receptor antagonists in rat brain: comparison with minimum-energy conformations” (J Med Chem, 1989).

Legend:
[1] = molecular target: Muscarinic acetylcholine receptor; parameters: species or system Rattus norvegicus
[2] = molecular target: Muscarinic acetylcholine receptor; assay type: tissue-based, Rattus norvegicus, Hippocampus
[3] = molecular target: Muscarinic acetylcholine receptor; assay type: tissue-based, Rattus norvegicus, Hippocampus; remark: listed apart in the source
[4] = molecular target: Muscarinic acetylcholine receptor; assay type: tissue-based, Rattus norvegicus, Hippocampus; remark: listed apart in the source
[5] = molecular target: Muscarinic acetylcholine receptor; parameters: species or system Rattus norvegicus; remark: listed apart in the source
[6] = molecular target: Muscarinic acetylcholine receptor
[7] = molecular target: Muscarinic acetylcholine receptor; remark: listed apart in the source
[8] = molecular target: Muscarinic acetylcholine receptor; remark: listed apart in the source
[9] = molecular target: Muscarinic acetylcholine receptor; remark: listed apart in the source
[10] = molecular target: Muscarinic acetylcholine receptor; remark: listed apart in the source
[11] = molecular target: Muscarinic acetylcholine receptor; remark: listed apart in the source
[12] = molecular target: Muscarinic acetylcholine receptor; remark: listed apart in the source
[13] = molecular target: Muscarinic acetylcholine receptor; remark: listed apart in the source
[14] = molecular target: Muscarinic acetylcholine receptor; remark: listed apart in the source
[15] = molecular target: Muscarinic acetylcholine receptor; remark: listed apart in the source
[16] = molecular target: Muscarinic acetylcholine receptor; remark: listed apart in the source
[17] = molecular target: Muscarinic acetylcholine receptor; remark: listed apart in the source
[18] = molecular target: Muscarinic acetylcholine receptor; remark: listed apart in the source
[19] = molecular target: Muscarinic acetylcholine receptor; remark: listed apart in the source
[20] = molecular target: Muscarinic acetylcholine receptor; remark: listed apart in the source
[21] = molecular target: Muscarinic acetylcholine receptor; remark: listed apart in the source
[22] = molecular target: Muscarinic acetylcholine receptor; remark: listed apart in the source
[23] = molecular target: Muscarinic acetylcholine receptor; remark: listed apart in the source
[24] = molecular target: Muscarinic acetylcholine receptor; remark: listed apart in the source
[25] = molecular target: Muscarinic acetylcholine receptor; remark: listed apart in the source
[26] = molecular target: Muscarinic acetylcholine receptor; remark: listed apart in the source
[27] = molecular target: Muscarinic acetylcholine receptor; remark: listed apart in the source
[28] = molecular target: Muscarinic acetylcholine receptor; remark: listed apart in the source
[29] = molecular target: Muscarinic acetylcholine receptor; remark: listed apart in the source
[30] = molecular target: Muscarinic acetylcholine receptor; remark: listed apart in the source
[31] = molecular target: Muscarinic acetylcholine receptor; remark: listed apart in the source
[32] = molecular target: Muscarinic acetylcholine receptor; remark: listed apart in the source
[33] = molecular target: Muscarinic acetylcholine receptor; remark: listed apart in the source
[34] = molecular target: Muscarinic acetylcholine receptor; remark: listed apart in the source
[35] = molecular target: Muscarinic acetylcholine receptor; remark: listed apart in the source
[36] = molecular target: Muscarinic acetylcholine receptor; remark: listed apart in the source
[37] = molecular target: Muscarinic acetylcholine receptor; remark: listed apart in the source
[38] = molecular target: Muscarinic acetylcholine receptor; remark: listed apart in the source
[39] = molecular target: Muscarinic acetylcholine receptor; remark: listed apart in the source
[40] = molecular target: Muscarinic acetylcholine receptor; remark: listed apart in the source
[41] = molecular target: Muscarinic acetylcholine receptor; remark: listed apart in the source
[42] = molecular target: Muscarinic acetylcholine receptor; remark: listed apart in the source
[43] = molecular target: Muscarinic acetylcholine receptor; remark: listed apart in the source
[44] = molecular target: Muscarinic acetylcholine receptor; remark: listed apart in the source
[45] = molecular target: Muscarinic acetylcholine receptor; remark: listed apart in the source
[46] = molecular target: Muscarinic acetylcholine receptor; remark: listed apart in the source
[47] = molecular target: Muscarinic acetylcholine receptor; remark: listed apart in the source
[48] = molecular target: Muscarinic acetylcholine receptor; remark: listed apart in the source
[49] = molecular target: Muscarinic acetylcholine receptor; remark: listed apart in the source
[50] = molecular target: Muscarinic acetylcholine receptor; remark: listed apart in the source
[51] = molecular target: Muscarinic acetylcholine receptor; remark: listed apart in the source
[52] = molecular target: Muscarinic acetylcholine receptor; remark: listed apart in the source
[53] = molecular target: Muscarinic acetylcholine receptor; remark: listed apart in the source
[54] = molecular target: Muscarinic acetylcholine receptor; remark: listed apart in the source
[55] = molecular target: Muscarinic acetylcholine receptor; remark: listed apart in the source
[56] = molecular target: Muscarinic acetylcholine receptor; remark: listed apart in the source
[57] = molecular target: Muscarinic acetylcholine receptor; remark: listed apart in the source
[58] = molecular target: Muscarinic acetylcholine receptor; remark: listed apart in the source
[59] = molecular target: Muscarinic acetylcholine receptor; remark: listed apart in the source
[60] = molecular target: Muscarinic acetylcholine receptor; remark: listed apart in the source

CCN(CC)CC1CCCCN1CC(=O)N1c2ccccc2C(=O)Nc2cccnc21 (stereo not given) [OTENZEPAD]
IC50 [1]: 4000 nM
IC50 [2]: 6100 nM
IC50 [3]: 6300 nM
IC50 [4]: 3200 nM
IC50 [5]: 1600 nM
IC50 [6]: 1300 nM
IC50 [7]: 310 nM
IC50 [8]: 250 nM
IC50 [9]: 310 nM
IC50 [10]: 230 nM
IC50 [11]: 1900 nM
IC50 [12]: 2900 nM
IC50 [13]: 5800 nM
IC50 [14]: 260 nM
IC50 [15]: 7000 nM
IC50 [16]: 720 nM
IC50 [17]: 240 nM
IC50 [18]: 490 nM
IC50 [19]: 300 nM
IC50 [20]: 610 nM
IC50 [21]: 2300 nM
IC50 [22]: 6500 nM
IC50 [23]: 2000 nM
IC50 [24]: 7300 nM
IC50 [25]: 1200 nM
IC50 [26]: 9800 nM
IC50 [27]: 310 nM
IC50 [28]: 4300 nM
IC50 [29]: 260 nM
IC50 [30]: 4300 nM
IC50 [31]: 1300 nM
IC50 [32]: 570 nM
IC50 [33]: 840 nM
IC50 [34]: 320 nM
IC50 [35]: 2100 nM
IC50 [36]: 580 nM
IC50 [37]: 250 nM
IC50 [38]: 860 nM
IC50 [39]: 1400 nM
IC50 [40]: 420 nM
IC50 [41]: 960 nM
IC50 [42]: 1500 nM
IC50 [43]: 1000 nM
IC50 [44]: 2100 nM
IC50 [45]: 1800 nM
IC50 [46]: 580 nM
IC50 [47]: 430 nM
IC50 [48]: 1400 nM
IC50 [49]: 1700 nM
IC50 [50]: 790 nM
IC50 [51]: 690 nM
IC50 [52]: 14000 nM
IC50 [53]: 620 nM
IC50 [54]: 680 nM
IC50 [55]: 3200 nM
IC50 [56]: 490 nM
IC50 [57]: 1000 nM
IC50 [58]: 460 nM
IC50 [59]: 420 nM
IC50 [60]: 4900 nM
